Experimental data as given in patent US11541107B2, “Peptides and T cells for use in immunotherapeutic treatment of various cancers” (Immatics Biotechnologies GmbH, priority 2015, dated 2023).

system: HLA-A*24; test: MHC binding assay, UV-ligand exchange with beta2m ELISA, HLA-A*24; parameters: species or system human; settings: binding to HLA-A*24 ranged by peptide exchange yield (UV-ligand exchange, beta2m ELISA)
Source text: Candidate peptides for T cell based therapies according to the present invention were further tested for their MHC binding capacity (affinity). The individual peptide-MHC complexes were produced by UV-ligand exchange, where a UV-sensitive peptide is cleaved upon UV-irradiation, and exchanged with the peptide of interest as analyzed. Only peptide candidates that can effectively bind and stabilize the peptide-receptive MHC molecules prevent dissociation of the MHC complexes. To determine the yield of the exchange reaction, an ELISA was performed based on the detection of the light chain (ß2 m) of stabilized MHC complexes. The assay was performed as generally described in Rodenko et al. (Rodenko et al., 2006).
96 well MAXISorp plates (NUNC) were coated over night with 2 ug/ml streptavidin in PBS at room temperature, washed 4× and blocked for 1 h at 37° C. in 2% BSA containing blocking buffer. […] Peptide-MHC monomers of the UV-exchange reaction were diluted 100 fold in blocking buffer. Samples were incubated for 1 h at 37° C., washed four times, incubated with 2 ug/ml HRP conjugated anti-β2 m for 1h at 37° C., washed again and detected with TMB solution that is stopped with […]. Absorption was measured at 450 nm. Candidate peptides that show a high exchange yield (preferably higher than 50%, most preferred higher than 75%) are generally preferred for a generation and production of antibodies or fragments thereof, and/or T cell receptors or fragments thereof, as they show sufficient avidity to the MHC molecules and prevent dissociation of the MHC complexes.

Peptide exchange, ++ (20%-49% = ++):
213 (SYAPPSEDLFL; listed as Homo sapiens) [compound 213]
152 (KFFDDLGDELLF; listed as Homo sapiens) [compound 152]
362 (VYNYAEQTL; listed as Homo sapiens) [compound 362]

Peptide exchange, ++++ (>=75% = ++++):
196 (GYIRGSWQF; listed as Homo sapiens) [compound 196]
286 (SYGTILSHI; listed as Homo sapiens) [compound 286]
223 (TFITQSPLL; listed as Homo sapiens) [compound 223]
170 (QYPFHVPLL; listed as Homo sapiens) [compound 170]
97 (TYTFLKETF; listed as Homo sapiens) [compound 97]
290 (KYGDFKLLEF; listed as Homo sapiens) [compound 290]
249 (RYHPTTCTI; listed as Homo sapiens) [compound 249]
206 (NYLDVATFL; listed as Homo sapiens) [compound 206]
271 (RFLMKSYSF; listed as Homo sapiens) [compound 271]
289 (FFHEGQYVF; listed as Homo sapiens) [compound 289]
173 (QYLEKYYNL; listed as Homo sapiens) [compound 173]
155 (IYKWITDNF; listed as Homo sapiens) [compound 155]
144 (VFASLPGFLF; listed as Homo sapiens) [compound 144]
319 (KYSDVKNLI; listed as Homo sapiens) [compound 319]
276 (QYLDVLHAL; listed as Homo sapiens) [compound 276]
221 (KYIGNLDLL; listed as Homo sapiens) [compound 221]
260 (VYMNVMTRL; listed as Homo sapiens) [compound 260]
305 (NYENKQYLF; listed as Homo sapiens) [compound 305]
301 (KFDDVTMLF; listed as Homo sapiens) [compound 301]
293 (VYPHFSTTNLI; listed as Homo sapiens) [compound 293]
248 (AFPTFSVQL; listed as Homo sapiens) [compound 248]

Peptide exchange, +++ (50%-75% = +++):
122 (EYQARIPEF; listed as Homo sapiens) [compound 122]
388 (IYGEKTYAF; listed as Homo sapiens) [compound 388]
118 (KYLNSVQYI; listed as Homo sapiens) [compound 118]
229 (IYQFVADSF; listed as Homo sapiens) [compound 229]
179 (TYIPVGLGRLL; listed as Homo sapiens) [compound 179]
255 (VYQKIILKF; listed as Homo sapiens) [compound 255]
146 (NYYERIHAL; listed as Homo sapiens) [compound 146]
304 (EYNEVANLF; listed as Homo sapiens) [compound 304]
355 (IYVTGGHLF; listed as Homo sapiens) [compound 355]
263 (RYILENHDF; listed as Homo sapiens) [compound 263]
183 (PYLQDVPRI; listed as Homo sapiens) [compound 183]
171 (NYEDHFPLL; listed as Homo sapiens) [compound 171]
316 (VYFEGSDFKF; listed as Homo sapiens) [compound 316]
178 (NYSSAVQKF; listed as Homo sapiens) [compound 178]
375 (KYTDYILKI; listed as Homo sapiens) [compound 375]
219 (SYLKAVFNL; listed as Homo sapiens) [compound 219]
378 (VYIAELEKI; listed as Homo sapiens) [compound 378]
159 (IYEETRGVL; listed as Homo sapiens) [compound 159]
207 (LYSDAFKFIVF; listed as Homo sapiens) [compound 207]
282 (NYLVDPVTI; listed as Homo sapiens) [compound 282]
373 (GYISNGELF; listed as Homo sapiens) [compound 373]
100 (VYIESRIGTSTSF; listed as Homo sapiens) [compound 100]
113 (IYSFHTLSF; listed as Homo sapiens) [compound 113]
381 (KYPASSSVF; listed as Homo sapiens) [compound 381]
303 (LYSVIKEDF; listed as Homo sapiens) [compound 303]
299 (KYQYVLNEF; listed as Homo sapiens) [compound 299]
318 (TYSNSAFQYF; listed as Homo sapiens) [compound 318]
228 (IYQYVADNF; listed as Homo sapiens) [compound 228]
224 (PYFFANQEF; listed as Homo sapiens) [compound 224]
279 (VWLPASVLF; listed as Homo sapiens) [compound 279]
383 (RYKPGEPITF; listed as Homo sapiens) [compound 383]
201 (GYNPNRVFF; listed as Homo sapiens) [compound 201]
284 (DYLKDPVTI; listed as Homo sapiens) [compound 284]
345 (EYNSDLHQFF; listed as Homo sapiens) [compound 345]
314 (RYFKGDYSI; listed as Homo sapiens) [compound 314]
315 (FYIPHVPVSF; listed as Homo sapiens) [compound 315]
372 (VYVIEPHSMEF; listed as Homo sapiens) [compound 372]
351 (IFHEVPLKF; listed as Homo sapiens) [compound 351]
237 (KYVGQLAVL; listed as Homo sapiens) [compound 237]
191 (TYPDGTYTGRIF; listed as Homo sapiens) [compound 191]
258 (AYAQLGYLL; listed as Homo sapiens) [compound 258]
283 (EYQEIFQQL; listed as Homo sapiens) [compound 283]
343 (NYLGGTSTI; listed as Homo sapiens) [compound 343]
349 (QYSIISNVF; listed as Homo sapiens) [compound 349]
117 (IYLSDLTYI; listed as Homo sapiens) [compound 117]
308 (TFDGHGVFF; listed as Homo sapiens) [compound 308]
386 (TFSDVEAHF; listed as Homo sapiens) [compound 386]
277 (FYTFPFQQL; listed as Homo sapiens) [compound 277]
236 (VYLPKIPSW; listed as Homo sapiens) [compound 236]
